In patent publication US4241184A, “Secondary alcohol dehydrogenase enzyme and use thereof” (priority 1979, dated 1980):

Experiments:
[1] = test system: cell-free particulate fractions derived from the methylotrophic microorganisms; assay: Conversion of C3-C6 n-alkanes to sec. alcohols by cell-free particulate fractions: inhibitors and electron donors; format: biochemical
From the text: The conditions for preparing the cell suspensions or the cell-free particulate fractions from methane-grown methylotroph microorganisms is the same as described above. […] Tables XXV and XXVI show the conversion of C3 -C6 n-alkanes to the corresponding secondary alcohols using cell suspensions and cell-free particulate fractions, respectively, of methane-grown methylotroph microorganisms.

[2] = Propylene- and methane-oxidizing activities in cell fractions P(40), P(80), S(80) of methylotrophs; format: biochemical; conditions: in place of NADH
Method: The oxidation of methane and propylene by particulate [(P)40 and(P)80] fractions and soluble [S(80)] fraction was measured at 30° C. by estimating the production of methanol and propylene oxide, respectively.
Reaction mixtures were contained in 10 ml vials at 4° C. Vials were sealed with rubber caps. The gaseous phase in the vials was removed using vacuum and then was replaced with a gas mixture of methane or propylene and oxygen at a 1:1, v/v ratio. Oxidation of other gaseous n-alkanes and n-alkenes was examined as described above. For liquid substrates, 10 μl of substrate was used directly. Vials were then incubated at 30° C. on a rotary shaker at 200 RPM.
The column temperature was maintained isothermally at 120° C. The carrier gas flow rate was 30 ml/min. of helium.

## NC(=O)C1=CN([C@@H]2O[C@H](COP(=O)(O)OP(=O)(O)OC[C@H]3O[C@@H](n4cnc5c(N)ncnc54)[C@H](OP(=O)(O)O)[C@@H]3O)[C@@H](O)[C@H]2O)C=CC1 [NADPH, reduced nicotinamide adenine dinucleotide phosphate]
[1]
  electron donor in place of NADH for hydroxylation of n-alkanes: could also be utilized
[2]
  electron carrier for epoxidation of propylene and hydroxylation of methane: could also be utilized
